The species named for data set [1] is Homo sapiens. The experiment in a line: Selectivity ratio of relative binding affinity for human ERbeta to relative binding affinity for human ERalpha.
Data set [2] deals with T1, Estrogen receptor (Homo sapiens) (UniProt P03372).
T1 sequence (whole entry): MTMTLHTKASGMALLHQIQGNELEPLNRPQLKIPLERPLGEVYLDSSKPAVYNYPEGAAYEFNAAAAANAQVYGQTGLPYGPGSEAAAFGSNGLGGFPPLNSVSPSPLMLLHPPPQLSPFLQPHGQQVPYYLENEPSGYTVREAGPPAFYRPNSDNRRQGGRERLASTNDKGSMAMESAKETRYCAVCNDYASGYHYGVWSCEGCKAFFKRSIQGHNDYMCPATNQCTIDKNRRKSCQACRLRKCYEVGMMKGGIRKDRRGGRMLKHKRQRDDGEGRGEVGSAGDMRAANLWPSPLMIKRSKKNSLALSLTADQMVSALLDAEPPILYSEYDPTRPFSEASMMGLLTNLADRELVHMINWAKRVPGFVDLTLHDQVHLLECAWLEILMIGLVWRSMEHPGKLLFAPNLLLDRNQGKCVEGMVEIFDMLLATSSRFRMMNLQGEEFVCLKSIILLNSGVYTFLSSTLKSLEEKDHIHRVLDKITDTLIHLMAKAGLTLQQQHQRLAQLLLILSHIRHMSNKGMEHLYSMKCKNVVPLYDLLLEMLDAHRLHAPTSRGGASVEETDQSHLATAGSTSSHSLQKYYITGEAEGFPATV
The experiment in a line: Activity at human ERalpha expressed in HEK293 cells assessed as relative transcription activation by estrogen response element-lucifease assay relative to estradiol. The class given is cell-based. Details: concentration or dose not given beside the values.

Data set [3] concerns the target Estrogen receptor beta (Homo sapiens) (UniProt Q92731). As to the kind of experiment: Activity at human ERbeta expressed in HEK293 cells assessed as relative transcription activation by estrogen response element-lucifease assay relative to estradiol. It counts as cell-based. Details: concentration or dose not given beside the values.
Data set [4] is filed under the species Homo sapiens. As to the kind of experiment: Selectivity ratio of relative transcription activation for human ERbeta to relative transcription activation for human ERalpha.
Data set [5] in a line: Hepatotoxicity in Sprague-Dawley rat hepatocyte after 2 hrs. It counts as toxicity, cell-based. As to conditions: hepatocytes, read-out: LC50.

Structures are written as SMILES.

Estrogen receptor beta (Homo sapiens), sequence (Q92731 whole entry): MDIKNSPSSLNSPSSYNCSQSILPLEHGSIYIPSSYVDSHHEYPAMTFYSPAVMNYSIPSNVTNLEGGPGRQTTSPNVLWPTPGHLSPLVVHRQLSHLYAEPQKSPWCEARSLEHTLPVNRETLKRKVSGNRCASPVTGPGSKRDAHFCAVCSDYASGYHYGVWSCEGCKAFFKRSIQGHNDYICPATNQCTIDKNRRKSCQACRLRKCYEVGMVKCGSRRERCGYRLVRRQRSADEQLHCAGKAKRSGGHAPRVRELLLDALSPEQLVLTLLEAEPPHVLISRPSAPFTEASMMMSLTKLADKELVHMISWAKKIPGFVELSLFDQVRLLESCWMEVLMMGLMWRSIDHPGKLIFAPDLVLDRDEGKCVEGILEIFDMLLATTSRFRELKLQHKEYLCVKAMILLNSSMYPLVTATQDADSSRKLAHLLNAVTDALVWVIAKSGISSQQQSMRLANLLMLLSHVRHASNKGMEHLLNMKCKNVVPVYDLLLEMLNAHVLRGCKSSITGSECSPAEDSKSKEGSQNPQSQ

Regarding `C[C@]12CC[C@H](c3cc(F)c(O)cc3F)C[C@H]1CC[C@@H]2O`, the Ratio in the data set filed under Homo sapiens [1] is 8.7.
For the molecule `C#C[C@]1(O)CC[C@@H]2C[C@@H](c3ccc(O)cc3)CC[C@@]21C`, the Activity in data set [2] was -16.9%; in data set [3], 35.9%. Besides, the Ratio in the data set listed under Homo sapiens [1] was found to be 1.3.
For `Cc1cc(O)ccc1[C@H]1CC[C@@]2(C)[C@H](CC[C@@H]2O)C1`, the results for the Activity in data set [2] and in data set [3] were -9.7% and 49.2%, respectively. In addition, the Ratio in the data set filed under Homo sapiens [1] amounted to 11.9.
As to `C[C@]12CCC(c3ccc(O)cc3Cl)=C[C@H]1CC[C@@H]2O`, the Activity turned out to be 98.6% in data set [2] and 127% in data set [3]. The Ratio came to 1.3 in the data set filed under Homo sapiens [4] and 1.7 in the data set filed under Homo sapiens [1].
For `C[C@]12CC[C@@H](c3ccc(O)cc3)C[C@H]1CC[C@@H]2O`, in data set [5], the CC50 at 2 h worked out at 300 µM.
With `C[C@]12CC[C@H](c3cc(Cl)c(O)c(Cl)c3)C[C@H]1CC[C@@H]2O`, the Activity in data set [2] and in data set [3] was 0% throughout. The Ratio in the data set listed under Homo sapiens [1] was 0.5.
Take `C[C@]12CC[C@H](c3ccc(O)c(F)c3F)C[C@H]1CC[C@@H]2O`: the figures for the Activity in data set [2] and in data set [3] were 18.3% and 151%, respectively. Moreover, the Ratio was found to be 8.3 in the data set listed under Homo sapiens [4] and 9.3 in the data set listed under Homo sapiens [1]. Further, the CC50 at 2 h in data set [5] is 155 µM.
Regarding `Cc1c(O)ccc([C@H]2CC[C@@]3(C)[C@H](CC[C@@H]3O)C2)c1F`, in the data set listed under Homo sapiens [1], the Ratio is 1.
As to `C[C@]12CC[C@H](c3ccc(O)cc3)C[C@H]1CC[C@@H]2O`, the Activity in data set [2] was 4.2%; in data set [3], 164%. Further, the Ratio in the data set listed under Homo sapiens [4] is 39; in the data set listed under Homo sapiens [1] it was 14.6. For the same molecule, the CC50 at 2 h in data set [5] came to 320 µM.
On to `C[C@]12CC[C@H](c3cc(F)c(O)c(F)c3)C[C@H]1CC[C@@H]2O`, for which the Ratio in the data set filed under Homo sapiens [1] stood at 6.9.
Take `C[C@]12CC[C@H](c3ccc(O)cc3)C[C@H]1CCC2=O`: the Ratio in the data set filed under Homo sapiens [1] was 14.
Regarding `C[C@]12CC[C@H](c3ccc(O)c(F)c3)C[C@H]1CC[C@@H]2O`, the Activity in data set [2] was -9%; in data set [3], 196%. Further, in the data set listed under Homo sapiens [1], the Ratio was 8.3.
With `Cc1c(O)ccc([C@H]2CC[C@@]3(C)[C@H](CC[C@@H]3O)C2)c1C`, the Ratio in the data set listed under Homo sapiens [1] was 2.8.
`C[C@]12CC[C@H](c3ccc(O)cc3Cl)C[C@H]1CC[C@@H]2O`: the Activity in data set [2] worked out at 90%; in data set [3] it was 189%.
As to `C[C@]12CC=C(c3ccc(O)cc3Cl)C[C@H]1CC[C@@H]2O`, the Activity in data set [2] was found to be 115%; in data set [3], 117%. The Ratio stood at 1 in the data set filed under Homo sapiens [4] and 2.3 in the data set listed under Homo sapiens [1].
Consider `C[C@]12CC[C@H](c3cc(F)c(O)c(F)c3F)C[C@H]1CC[C@@H]2O`, for which the Activity in data set [2] amounted to 12.8%; in data set [3], 95.4%. Besides, the Ratio in the data set filed under Homo sapiens [4] is 7.9; in the data set listed under Homo sapiens [1] it was 9.3. Moreover, the CC50 at 2 h in data set [5] was over 600 µM.
For the molecule `C[C@]12CC[C@H](c3ccc(O)cc3F)C[C@H]1CC[C@@H]2O`, the Activity is 44.3% in data set [2] and 158% in data set [3]. In addition, the results for the Ratio in the data set filed under Homo sapiens [4] and in the data set filed under Homo sapiens [1] were 3.6 and 5, respectively. The CC50 at 2 h in data set [5] came to 250 µM.
On to `C[C@]12CC[C@@H]3c4ccc(O)cc4CC[C@H]3[C@@H]1CC[C@@H]2O` [ESTRADIOL], for which the CC50 at 2 h in data set [5] is 400 µM.

(Values after ChEMBL document CHEMBL1649425, “A-CD estrogens. I. Substituent effects, hormone potency, and receptor subtype selectivity in a new family of flexible estrogenic compounds” (J Med Chem, 2011).)
